According to patent publication US4124578A, “Antiovulatory polypeptides” (American Home Products Corporation, priority 1978, dated 1978):
Non-standard residues stand in square brackets, D forms with d. Residues, ends and D or L forms follow the SMILES beside them. pGlu = O=C1CC[C@@H](C(=O)O)N1

Columns and labels:
[1] = CNS depression noted during the anti-ovulatory test; assay type: in vivo, rat; details: at the anti-ovulatory dose (6 mg., subcutaneous in oil), female rats
Protocol: (§1) The rats are sacrificed the next morning (estrus), and the number of animals ovulating and the number of ova identified under a disecting microscope are recorded. The absence of, or a significant decrease in, the number of ova is the criterion for an anti-ovulary effect.

spontaneous ovulation = test: Inhibition of spontaneous ovulation in female rats; assay type: in vivo, rat; details: subcutaneous injections in oil on afternoon of proestrus, adult female rats; for Number of Ovulating Rats: ovulating/total
Protocol: as §1

[2] = system: luteinizing hormone (LH) release; details: in vivo, rat; cited from earlier work
[3] = system: Follicle stimulating hormone (FSH) release; details: in vivo, rat; cited from earlier work

CCNC(=O)[C@@H]1CCCN1C(=O)[C@H](CCCNC(=N)N)NC(=O)[C@@H](CC(C)C)NC(=O)C(C)(C)NC(=O)CNC(=O)[C@@H](Cc1c[nH]c2ccccc12)NC(=O)[C@H](CCCNC(=N)N)NC(=O)[C@H](Cc1ccc(O)cc1)NC(=O)[C@@H]1CCC(=O)N1 [Example 3, L-(5-Oxoprolyl)-L-tyrosyl-L-arginyl-D-tryptophylglycyl-(2-methylalanyl)-D-leucyl-L-arginyl-N-ethyl-L-prolinamide] (HELM PEPTIDE1{[Glp].Y.R.[dW].G.[Aib].[dL].R.P.[CCN[*:1]]}$$$$V2.0)
CNS depression [1]: CNS depression is noted at the anti-ovulatory dose

CCNC(=O)[C@@H]1CCCN1C(=O)[C@H](CCCNC(=N)N)NC(=O)[C@H](CC(C)C)NC(=O)[C@@H](C)NC(=O)CNC(=O)[C@H](Cc1c[nH]c2ccccc12)NC(=O)[C@H](CCCNC(=N)N)NC(=O)[C@H](Cc1ccc(O)cc1)NC(=O)[C@@H]1CCC(=O)N1 [Example 5, L-(5-Oxoprolyl)-L-tyrosyl-L-arginyl-L-tryptophylglycyl-D-alanyl-L-leucyl-L-arginyl-N-ethyl-L-prolinamide] (HELM PEPTIDE1{[Glp].Y.R.W.G.[dA].L.R.P.[CCN[*:1]]}$$$$V2.0)
% Inhibition of Ovulation (spontaneous ovulation; Dose 6 mg.): 60%
Number of Ovulating Rats (spontaneous ovulation; Dose 6 mg.): 2/5

CC(C)C[C@H](NC(=O)[C@@H](C)NC(=O)CNC(=O)[C@H](Cc1c[nH]c2ccccc12)NC(=O)[C@H](CCCNC(=N)N)NC(=O)[C@H](Cc1ccc(O)cc1)NC(=O)[C@@H]1CCC(=O)N1)C(=O)N[C@@H](CCCNC(=N)N)C(=O)N1CCC[C@H]1C(N)=O [Example 7, L-(5-Oxoprolyl)-L-tyrosyl-L-arginyl-L-tryptophylglycyl-D-alanyl-L-leucyl-L-arginyl-L-prolyl amide] (HELM PEPTIDE1{[Glp].Y.R.W.G.[dA].L.R.P.[am]}$$$$V2.0)
% Inhibition of Ovulation (spontaneous ovulation; Dose 0.5 mg.): 50%
Number of Ovulating Rats (spontaneous ovulation; Dose 0.5 mg.): 3/6

CCNC(=O)[C@@H]1CCCN1C(=O)[C@H](Cc1c[nH]c2ccccc12)NC(=O)[C@H](CCCNC(=N)N)NC(=O)[C@H](Cc1ccc(O)cc1)NC(=O)[C@@H]1CCC(=O)N1 [Example 9, L-(5-Oxoprolyl)-L-tyrosyl-L-arginyl-L-tryptophyl-N-ethyl-2-prolin amide] (HELM PEPTIDE1{[Glp].Y.R.W.P.[CCN[*:1]]}$$$$V2.0)
% Inhibition of Ovulation (spontaneous ovulation; Dose 6 mg.): 50%
Number of Ovulating Rats (spontaneous ovulation; Dose 6 mg.): 2/4

[pGlu]YRW-NH2
release of luteinizing hormone (LH) [2]: release luteinizing hormone (LH)
Follicle stimulating hormone (FSH) release [3]: unaffected

[pGlu]YRWGHL-NH2
release of luteinizing hormone (LH) [2]: release LH
